Results reported in patent publication US8871728B2, “Non-peptide macrocyclic histone deacetylese (HDAC) inhibitors and methods of making and using thereof” (Georgia Tech Research Corporation, priority 2007, dated 2014).
Values after ≈ are worked out from the molar mass of the structure shown. Values joined by “and” are separate entries in the source; they are usually repeats but may differ in a detail not shown here. Equal values may be shown once. Read-outs that look alike come from different tables or passages of the source.

Legend:
HDAC6 = HDAC6 (Homo sapiens (Human), UniProt Q9UBN7); experiment: SAMDI mass spectrometry HDAC inhibition assay; type: biochemical; conditions: for inhibition at 10 µM: read-out: HDAC6 % inhibition
Sequence of HDAC6 (Q9UBN7 whole entry): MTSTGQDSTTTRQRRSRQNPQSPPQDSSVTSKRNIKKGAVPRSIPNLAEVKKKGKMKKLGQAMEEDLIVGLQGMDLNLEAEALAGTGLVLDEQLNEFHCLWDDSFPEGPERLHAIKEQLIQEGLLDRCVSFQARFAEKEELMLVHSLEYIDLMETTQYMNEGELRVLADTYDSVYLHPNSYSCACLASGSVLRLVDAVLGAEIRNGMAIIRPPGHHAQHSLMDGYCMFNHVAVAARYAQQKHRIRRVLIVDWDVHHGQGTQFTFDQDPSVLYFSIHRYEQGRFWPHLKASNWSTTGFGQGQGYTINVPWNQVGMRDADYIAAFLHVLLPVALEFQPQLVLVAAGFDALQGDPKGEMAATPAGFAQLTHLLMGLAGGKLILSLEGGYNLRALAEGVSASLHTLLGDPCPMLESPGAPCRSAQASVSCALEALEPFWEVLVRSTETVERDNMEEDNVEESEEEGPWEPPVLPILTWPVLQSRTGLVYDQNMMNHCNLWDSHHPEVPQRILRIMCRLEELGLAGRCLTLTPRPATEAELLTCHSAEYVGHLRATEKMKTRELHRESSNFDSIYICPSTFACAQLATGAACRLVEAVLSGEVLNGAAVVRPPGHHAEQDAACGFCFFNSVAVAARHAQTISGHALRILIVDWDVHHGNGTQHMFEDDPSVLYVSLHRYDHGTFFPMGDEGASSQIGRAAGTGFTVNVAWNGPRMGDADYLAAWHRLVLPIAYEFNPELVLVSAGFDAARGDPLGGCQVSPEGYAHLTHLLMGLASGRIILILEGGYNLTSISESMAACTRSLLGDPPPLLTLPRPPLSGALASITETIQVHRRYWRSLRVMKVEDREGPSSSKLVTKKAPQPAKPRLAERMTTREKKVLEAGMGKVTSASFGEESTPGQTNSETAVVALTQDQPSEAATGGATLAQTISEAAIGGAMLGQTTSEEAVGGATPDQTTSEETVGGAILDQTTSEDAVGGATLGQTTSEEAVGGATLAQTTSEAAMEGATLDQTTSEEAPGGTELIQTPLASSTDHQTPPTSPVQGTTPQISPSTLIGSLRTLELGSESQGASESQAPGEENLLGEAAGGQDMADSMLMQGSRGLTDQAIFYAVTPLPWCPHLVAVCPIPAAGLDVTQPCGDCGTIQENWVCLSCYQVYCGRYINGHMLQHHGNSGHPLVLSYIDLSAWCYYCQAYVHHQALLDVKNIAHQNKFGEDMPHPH
Experimental: (§1) There is precedence that fluorescently labeled substrates can perturb enzyme activity and the effect of inhibitors. […] Additionally, 3-hydroxypyridine-2-ones are highly colored solids and might lead to false positive signals. Mindful of these facts, a label-free SAMDI (self-assembled monolayers for MALDI) mass spectrometry assay was also used to assess HDAC inhibition.
The SAMDI technique, wherein self-assembled monolayers (SAM) of alkanethiolates on gold are analyzed by matrix assisted laser desorption/ionization (MALDI) mass spectrometry, has been widely used to characterize many biochemical activities, including the deacetylase enzyme family. The SAMDI assay was used to measure the inhibition constant (K1) of fragments against HDAC1, HDAC6 and HDAC8 using a previously identified preferred HDAC substrate.

[1] = tested on: LNCaP (androgen dependent prostate cancer); experiment: Anti-cancer activity screen; type: cell-based
HDAC1 = HDAC1 (Homo sapiens (Human), UniProt Q13547); experiment: SAMDI mass spectrometry HDAC inhibition assay; type: biochemical; conditions: for HDAC1 inhibition, symbol: SAMDI
Sequence of HDAC1 (Q13547 whole entry): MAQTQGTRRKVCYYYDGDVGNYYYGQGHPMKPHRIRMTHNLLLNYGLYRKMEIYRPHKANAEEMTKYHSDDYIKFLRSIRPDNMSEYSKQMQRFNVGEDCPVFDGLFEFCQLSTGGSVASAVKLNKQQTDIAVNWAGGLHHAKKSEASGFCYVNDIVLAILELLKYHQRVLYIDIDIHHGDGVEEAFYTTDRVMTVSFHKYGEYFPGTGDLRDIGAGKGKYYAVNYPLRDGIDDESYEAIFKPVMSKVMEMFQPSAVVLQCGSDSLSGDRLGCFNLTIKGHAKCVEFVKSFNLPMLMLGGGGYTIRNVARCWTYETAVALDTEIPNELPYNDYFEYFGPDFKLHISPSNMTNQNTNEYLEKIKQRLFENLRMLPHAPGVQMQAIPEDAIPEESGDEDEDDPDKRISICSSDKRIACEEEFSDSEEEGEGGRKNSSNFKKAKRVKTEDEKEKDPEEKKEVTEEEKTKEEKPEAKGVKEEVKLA
Experimental: as §1
(§2) The SAMDI technique, wherein self-assembled monolayers (SAM) of alkanethiolates on gold are analyzed by matrix assisted laser desorption/ionization (MALDI) mass spectrometry, has been widely used to characterize many biochemical activities, including the deacetylase enzyme family.

[2] = tested on: DU 145 (androgen independent prostate cancer); experiment: Anti-cancer activity screen; type: cell-based
[3] = tested on: promastigote stage of L. donovani; experiment: Antileishmanial Alamar blue fluorometric assay; type: cell-based
Experimental: (§3) The compounds described herein were also evaluated for parasitic activity against Plasmodium falciparum and Leismania donovani. P. falciparum and L. donovani are the causative parasites of malaria and leishmaniasis, two human diseases which constitute a serious threat to public health in tropical and sub-tropical countries. Antimalarial activity was evaluated in vitro using chloroquine-sensitive (D6, Sierra Leone) and chloroquine-resistant (W2, Indochina) strains of P. falciparum. Antileishmanial activity was evaluated in vitro against the promastigote stage of L. donovani.
(§4) Plasmodium growth inhibition was determined by a parasite lactate dehydrogenase assay using Malstat reagent. Inhibition of viability of the promastigote stage of L. donovani was determined using standard Alamar blue assay, modified to a fluorometric assay.
as §3, with “Macrocyclic histone deacetylase inhibitors” for “The compounds described herein”, “were” for “were also”
as §4

HDAC8 [4] = biological target: T1, HDAC8 (Homo sapiens (Human), UniProt Q9BY41); experiment: Fluor de Lys HDAC8 inhibition; type: biochemical; conditions: average of three independent experiments; Table 4; read-out: HDAC 8
T1 sequence (Q9BY41 whole entry): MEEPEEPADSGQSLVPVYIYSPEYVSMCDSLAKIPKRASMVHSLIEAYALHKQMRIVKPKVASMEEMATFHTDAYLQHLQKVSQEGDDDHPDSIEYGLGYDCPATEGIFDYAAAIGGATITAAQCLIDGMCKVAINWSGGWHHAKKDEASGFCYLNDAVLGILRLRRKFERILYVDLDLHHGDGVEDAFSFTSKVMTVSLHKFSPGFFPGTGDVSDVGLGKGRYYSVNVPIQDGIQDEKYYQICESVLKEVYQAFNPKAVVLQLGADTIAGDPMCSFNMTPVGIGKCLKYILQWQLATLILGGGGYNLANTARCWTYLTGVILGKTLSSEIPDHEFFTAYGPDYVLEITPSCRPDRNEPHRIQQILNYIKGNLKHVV

[5] = tested on: HeLa nuclear extract HDAC1/2; experiment: Fluor de Lys HDAC inhibition, HeLa nuclear extract; type: biochemical, human; conditions: HeLa nuclear extract; average of three independent experiments; Table 4; read-out: HDAC ½
Source text: Fluor de Lys™ is a fluorescence based HDAC activity assay comprising a combination of fluorogenic Histone deAcetylase Lysyl substrate and a developer. The kit is a highly sensitive and convenient alternative to radiolabeled, acetylated histones or peptide/HPLC methods for the assay of histone deacetylases. This assay is based on the ability of HeLa nuclear extract, which is enriched in HDAC activity, to mediate the deacetylation of the acetylated lysine side chain of the Fluor de Lys substrate. The assay procedure requires two steps. First, incubation of the HeLa nuclear extract with the Fluor de Lys substrate results in substrate deacetylation and thus sensitizes it to the second step. In the second step, treatment of the deacetylated substrate with the Fluor de Lys developer produces a fluorophore. The substrate-developer reaction, under normal circumstances goes to completion in less than 1 min at 25° C. The kit used was the Fluorimetric Assay/Drug Discovery Kit—AK-500 Manual Fluorescent Assay System available from BIOMOL® International, Plymouth Meeting, Pa.
Each IC50 value was obtained by averaging three independent experiments.

DU 145 cells = experiment: Cell viability, trypan blue exclusion; type: cell-based; conditions: Homo sapiens
Source text: (§5) Most importantly, the compounds we less toxic to untransformed cell-lines (lung fibroblast and HMEC).
(§6) Most importantly, these compounds are less toxic to untransformed cell-lines (lung fibroblast and HMEC) that we have studied to date.

lung fibroblasts = experiment: Cell viability, trypan blue exclusion; type: cell-based; conditions: Fibroblast; untransformed cells
Source text: as §5, §6

HMEC = experiment: Cell viability, trypan blue exclusion; type: cell-based; conditions: Homo sapiens; untransformed cells
Source text: as §5, §6

SKMES 1 = experiment: Cell viability, trypan blue exclusion; type: cell-based; conditions: Homo sapiens, SK-MES-1
Source text: as §5, §6

NCI-H69 = experiment: Cell viability, trypan blue exclusion; type: cell-based; conditions: Homo sapiens
Source text: as §5, §6

[6] = tested on: Jurkat (T cell leukemia overexpressing HDAC8); experiment: Anti-cancer activity screen; type: cell-based
HDAC8 [7] = biological target: T1, HDAC8; experiment: SAMDI mass spectrometry HDAC inhibition assay; type: biochemical
Experimental: as §1, §2

[8] = tested on: Plasmodium falciparum (D6 clone), chloroquine-sensitive; experiment: Plasmodium growth inhibition, parasite lactate dehydrogenase assay (Malstat); type: cell-based; conditions: selective toxicity index, Vero versus D6
Experimental: as §3, §4
as §3, with “Macrocyclic histone deacetylase inhibitors” for “The compounds described herein”, “were” for “were also”
as §4

[9] = Table 14, read-out: HDAC 6 (nm)
[10] = Homo sapiens, DU-145, calculated IC50 above 20 μM (highest concentration tested) also reported as >20
[11] = Table 14, read-out: HDAC 8 (nm)

With `Cc1ccccc1-c1ccc(Cn2cccc(O)c2=S)cc1` [Compound 149f, 1-(2-Methyl-(1,1′-biphenylmethyl))-3-hydroxyoxypyridine-2-thione] the IC50 (HDAC6; [9]) was 0.306 ± 0.069 µM, the IC50 ([1]; Homo sapiens, LNCaP) was 7.75 ± 0.73 µM and the “HDAC1 inhibition, symbol” value (HDAC1) was “NI (No significant Inhibition (below 20% Inhibition))”. It also gave an IC50 [2, 10] of 13.6 ± 2.91 µM.

`C[C@@H]1[C@H](O)[C@@H](C)/C=C/C=C/C=C/C=C/C=C/C=C/C=C/[C@H](O[C@@H]2O[C@H](C)[C@@H](O)[C@H](N)[C@@H]2O)C[C@@H]2O[C@](O)(C[C@@H](O)C[C@@H](O)[C@H](O)CC[C@@H](O)C[C@@H](O)CC(=O)O[C@H]1C)C[C@H](O)[C@H]2C(=O)O` [Amphotericine B, Amphotericin B, reference compound] was tested, and the “Antileshmanial activity IC90” value ([3]; promastigotes) was 0.32 µg/mL and 0.3 µg/mL.

Compound `CC[C@H]1OC(=O)[C@H](C)[C@@H](O)[C@H](C)[C@@H](O[C@@H]2O[C@H](C)C[C@H](N(C)Cc3ccc(-c4cn(CCCCCCCC(=O)NO)nn4)cc3)[C@H]2O)[C@](C)(OC)C[C@@H](C)C(=O)[C@H](C)[C@@H](O)[C@]1(C)O` [Compound 28, Descladinose-Clarithromycin-N-Phenyltriazolyloctahydroxamic acid] has an IC50 (HDAC8 [4]) of 4.42 µM, an IC50 [5] of 0.123 µM and an EC50 (DU 145 cells) of 5.78 µM. The EC50 (lung fibroblasts) was greater than 10 µM, the EC50 (HMEC) was greater than 10 µM and the EC50 (SKMES 1) was 4.45 µM. The EC50 (NCI-H69) was 5.09 µM.

Work on `Oc1cccn(Cc2cn(-c3ccccc3)nn2)c1=S` [Compound 154a, 1-Phenyltriazolylmethyl-3-hydroxypyridine-2-thione] yielded an inhibition at 10 µM (HDAC6) of 41%, an IC50 ([1]; Homo sapiens, LNCaP) of 13.1 ± 1.51 µM and an IC50 ([6]; Homo sapiens, Jurkat, read-out: Jurkat (μm)) of 4.68 ± 0.34 µM. For the same compound, the IC50 [2, 10] was 24 ± 7.47 µM and the IC50 ([2]; calculated IC50 above 20 μM (highest concentration tested) also reported as >20) was greater than 20 µM.

`Oc1cccn(CCCCCn2cc(-c3ccccc3)nn2)c1=S` [Compound 162d, 1-Phenyltriazolylpentyl-3-hydroxypyridine-2-thione] showed an IC50 (HDAC6; SAMDI, read-out: HDAC6 IC50) of 0.911 µM, an IC50 (HDAC6; [9]) of 0.911 ± 0.173 µM and an IC50 [1] of 5.43 ± 0.47 µM. The “HDAC8 activity difference between 162d and 162e” value (HDAC8 [7]; SAMDI) was roughly 7 fold, the IC50 (HDAC8 [7]; SAMDI, read-out: HDAC8 IC50) was 0.917 µM and the IC50 (HDAC8 [7]; [11]) was 0.917 ± 0.139 µM. The “HDAC1 inhibition, symbol” value (HDAC1) was “NI (No significant Inhibition (below 20% Inhibition))”, the HDAC1 % inhibition (HDAC1; at 10 μM, given if the IC50 was above 10 μM) was 30% and the IC50 ([6]; read-out: Jurkat (μm)) was 3.27 ± 0.6 µM. It also gave an IC50 [2] of 9.33 ± 0.96 µM.

`O=C(CCCCCCC(=O)Nc1ccccc1)NO` [SAHA, suberoylanilide hydroxamic acid, reference compound] was tested, and the inhibition at 10 µM (HDAC6) was 95%, the “S.I. D6” value [8] was 4.8 and the IC90 ([3]; Leishmania donovani, read-out: Antileshmanial activity IC90 (μg/ml)) was 50 µg/mL (≈ 189 µM).

In the case of `Oc1cccn(Cc2ccc(Cn3cc(-c4ccccc4)nn3)cc2)c1=S` [Compound 168], the IC50 (HDAC6; [9]) is reported as 0.534 ± 0.185 µM, the IC50 ([1]; Homo sapiens, LNCaP) is reported as 7.8 ± 0.55 µM and the IC50 (HDAC8 [7]; [11]) is reported as 5.47 ± 1.6 µM. The “HDAC1 inhibition, symbol” value (HDAC1) was “NI (No significant Inhibition (below 20% Inhibition))”, the IC50 ([6]; Homo sapiens, Jurkat; read-out: Jurkat (μm)) was 6.55 ± 0.91 µM and the IC50 [2, 10] was 16.1 ± 2.24 µM.
